Results taken from patent US11964960B2 (Cornell University, priority 2018, dated 2024).
pIC50: −log10 of the molar value. Where a name gives a salt, the structure may show the parent alone.

target: T1, S1P2 (Homo sapiens, UniProt O95136); assay: GLISA RhoA activation - antagonist assay; format: cell-based; details: 1 μM compound, CHO-S1P2-FL cells
T1 construct: Flag; expressed in transfected cells; host or cells: Chinese hamster ovary (CHO) cells, doxycycline-inducible (CHO-S1P2-FL / CHO-S1PR2 FL)
T1 sequence (O95136 whole entry, species assumed): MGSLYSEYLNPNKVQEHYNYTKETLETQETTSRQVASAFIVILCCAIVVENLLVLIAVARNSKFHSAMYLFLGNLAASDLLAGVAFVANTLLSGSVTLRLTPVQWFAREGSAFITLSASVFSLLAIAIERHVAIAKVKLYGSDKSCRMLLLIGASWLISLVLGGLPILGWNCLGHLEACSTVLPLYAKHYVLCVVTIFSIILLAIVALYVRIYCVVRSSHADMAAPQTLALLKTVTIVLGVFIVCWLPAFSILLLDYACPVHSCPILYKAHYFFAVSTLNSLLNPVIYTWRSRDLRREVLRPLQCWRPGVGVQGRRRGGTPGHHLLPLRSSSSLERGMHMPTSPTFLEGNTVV
Experimental: GLISA RhoA Activation—Antagonist Assay
GLISA assays were performed using RhoA (BK124) activation kit purchased from Cytoskeleton Inc., Denver, CO Doxycycline-inducible Flag-tag S1P2 expressing Chinese hamster ovary (CHO) cells (CHO-S1P2-FL) were seeded in a 6-well plate, 1.5×10^5 cells per well. Cells were stimulated with […] of Doxycycline to induce S1P2 expression in serum free IMDM media with 0.1% BSA/PBS. Following day, cells were stimulated with the compounds described herein (1 nM-10 μM) or 1 μM JTE-013 for 1 hour at 37° C. Following compound incubation, cells were washed with PBS×3 and induced with 100 nM […] for 5 min. […] Protein concentration was examined using GLISA—Precision Red Advanced Protein assay reagent as described in assay manual. Lysates were immobilized on GTP-bound capture plate and GLISA assay was performed based on manufacture recommendations as reported previously.

inhibition at 1 µM [%] | Structure (SMILES)
30 | Cc1cc(C(=O)C(C)n2cc(Br)ccc2=O)c(C)n1CC1CCCOC1 (centres unmarked) [Compound 11, 5-bromo-1-(1-(2,5-dimethyl-1-((tetrahydro-2H-pyran-3-yl)methyl)-1H-pyrrol-3-yl)-1-oxopropan-2-yl)pyridin-2(1H)-one]
58 | Cc1cc(C(=O)Cn2cc(Br)ccc2=O)c(C)n1Cc1ccc(F)cc1 [Compound 28, 5-bromo-1-(2-(1-(4-fluorobenzyl)-2,5-dimethyl-1H-pyrrol-3-yl)-2-oxoethyl)pyridin-2(1H)-one]
76 | Cc1cc(C(=O)C(C)n2cc(Br)ccc2=O)c(C)n1Cc1ccc(F)cc1 (centres unmarked) [Compound 18, 5-bromo-1-(1-(1-(4-fluorobenzyl)-2,5-dimethyl-1H-pyrrol-3-yl)-1-oxopropan-2-yl)pyridin-2(1H)-one]
73 | Cc1cc(C(=O)C(C)n2cc(Br)ccc2=O)c(C)n1Cc1cccnc1 (centres unmarked) [Compound 24, 5-bromo-1-(1-(2,5-dimethyl-1-(pyridin-3-ylmethyl)-1H-pyrrol-3-yl)-1-oxopropan-2-yl)pyridin-2(1H)-one]
29 | Cc1cc(C(=O)C(C)n2cc(Br)ccc2=O)c(C)n1Cc1ccc(S(C)(=O)=O)cc1 (centres unmarked) [Compound 13, 5-bromo-1-(1-(2,5-dimethyl-1-(4-(methylsulfonyl)benzyl)-1H-pyrrol-3-yl)-1-oxopropan-2-yl)pyridin-2(1H)-one]
12 | Cc1cc(C(=O)Cn2cc(C#N)ccc2=O)c(C)n1CCc1ccccc1 [Example 91, 1-(2-(2,5-Dimethyl-1-phenethyl-1H-pyrrol-3-yl)-2-oxoethyl)-6-oxo-1,6-dihydropyridine-3-carbonitrile]
11 | Cc1ccc(Cn2c(C)cc(C(=O)C(C)n3cc(Br)ccc3=O)c2C)cc1 (centres unmarked) [Example 65, 5-Bromo-1-(1-(2,5-dimethyl-1-(4-methylbenzyl)-1H-pyrrol-3-yl)-1-oxopropan-2-yl)pyridin-2(1H)-one]
10 | Cc1cc(C(=O)Cn2cc(C#N)ccc2=O)c(C)n1Cc1ccc2c(c1)OCO2 [Example 93, 1-(2-(1-(Benzo[d][1,3]dioxol-5-ylmethyl)-2,5-dimethyl-1H-pyrrol-3-yl)-2-oxoethyl)-6-oxo-1,6-dihydropyridine-3-carbonitrile]
46 | Cc1cc(C(=O)C(C)n2cc(Br)ccc2=O)c(C)n1Cc1ccc(F)c(F)c1 (centres unmarked) [Compound 20, 5-bromo-1-(1-(1-(3,4-difluorobenzyl)-2,5-dimethyl-1H-pyrrol-3-yl)-1-oxopropan-2-yl)pyridn-2(1H)-one]
55 | CC#Cc1ccc(=O)n(CC(=O)c2cc(C)n(Cc3ccccc3)c2C)c1 [Compound 26, 1-(2-(1-benzyl-2,5-dimethyl-1H-pyrrol-3-yl)-2-oxoethyl)-5-(prop-1-yn-1-yl)pyridin-2(1H)-one]
31 | Cc1cc(C(=O)Cn2cc(C#N)ccc2=O)c(C)n1C(C)c1ccccc1 (centres unmarked) [Example 92, 1-(2-(2,5-Dimethyl-1-(1-phenylethyl)-1H-pyrrol-3-yl)-2-oxoethyl)-6-oxo-1,6-dihydropyridine-3-carbonitrile]
58 | Cc1cc(C(=O)C(C)n2cc(Br)ccc2=O)c(C)n1Cc1ncccn1 (centres unmarked) [Compound 7, 5-bromo-1-(1-(2,5-dimethyl-1-(pyrimidin-2-ylmethyl)-1H-pyrrol-3-yl)-1-oxopropan-2-yl)pyridin-2(1H)-one]
73 | Cc1cc(C(=O)C(C)n2cc(Br)ccc2=O)c(C)n1Cc1cccc(Cl)c1 (centres unmarked) [Compound 22, 5-bromo-1-(1-(1-(3-chlorobenzyl)-2,5-dimethyl-1H-pyrrol-3-yl)-1-oxopropan-2-yl)pyridin-2(1H)-one]
< 10 | COc1cccc(Cn2c(C)cc(C(=O)C(C)n3cc(Br)ccc3=O)c2C)c1 (centres unmarked) [Example 60, 5-Bromo-1-(1-(1-(3-methoxybenzyl)-2,5-dimethyl-1H-pyrrol-3-yl)-1-oxopropan-2-yl)pyridin-2(1H)-one]
69 | C#Cc1ccc(=O)n(CC(=O)c2cc(C)n(Cc3ccc(F)cc3)n2)c1 [Compound 31, 5-ethynyl-1-(2-(1-(4-fluorobenzyl)-5-methyl-1H-pyrazol-3-yl)-2-oxoethyl)pyridin-2(1H)-one]
18 | Cc1cc(C(=O)Cn2cc(Br)ccc2=O)nn1Cc1ccc(F)cc1 [Example 68, 5-Bromo-1-(2-(1-(4-fluorobenzyl)-5-methyl-1H-pyrazol-3-yl)-2-oxoethyl)pyridin-2(1H)-one]
18 | COc1ccc(Cn2c(C)cc(C(=O)C(C)n3cc(Br)ccc3=O)c2C)cc1 (centres unmarked) [Example 61, 5-Bromo-1-(1-(1-(4-methoxybenzyl)-2,5-dimethyl-1H-pyrrol-3-yl)-1-oxopropan-2-yl)pyridin-2(1H)-one]
17 | Cc1cccc(Cn2c(C)cc(C(=O)C(C)n3cc(Br)ccc3=O)c2C)c1 (centres unmarked) [Example 63, 5-Bromo-1-(1-(2,5-dimethyl-1-(3-methylbenzyl)-1H-pyrrol-3-yl)-1-oxopropan-2-yl)pyridin-2(1H)-one]
39 | Cc1cc(C(=O)C(C)n2cc(Br)ccc2=O)c(C)n1CC1CCOCC1 (centres unmarked) [Compound 10, 5-bromo-1-(1-(2,5-dimethyl-1-((tetrahydro-2H-pyran-4-yl)methyl)-1H-pyrrol-3-yl)-1-oxopropan-2-yl)pyridin-2(1H)-one]
44 | Cc1cc(C(=O)C(C)n2cc(Br)ccc2=O)c(C)n1Cc1ccccc1F (centres unmarked) [Compound 19, 5-bromo-1-(1-(1-(2-fluorobenzyl)-2,5-dimethyl-1H-pyrrol-3-yl)-1-oxopropan-2-yl)pyridin-2(1H)-one]
20 | Cc1cc(C(=O)C(C)n2cc(Br)ccc2=O)c(C)n1Cc1cnn(C)c1 (centres unmarked) [Compound 8, 5-bromo-1-(1-(2,5-dimethyl-1-((1-methyl-1H-pyrazol-4-yl)methyl)-1H-pyrrol-3-yl)-1-oxopropan-2-yl)pyridin-2(1H)-one]

same assay, conditions: CHO-S1P2-FL cells, 1 hour compound incubation, then for 5 min

pIC50 | Structure (SMILES)
< 5.00 | Cc1cc(=O)n(CC(=O)c2cc(C)n(Cc3ccccc3)c2C)cc1C#N [Example 49, 1-(2-(1-Benzyl-2,5-dimethyl-1H-pyrrol-3-yl)-2-oxoethyl)-4-methyl-6-oxo-1,6-dihydropyridine-3-carbonitrile]
6.85 | O=c1ccc(Br)cn1Cc1nccc2c1cnn2Cc1ccccc1 [Compound 130, 1-((1-Benzyl-1H-pyrazolo[4,3-c]pyridin-4-y)methyl)-5-bromopyridin-2(1H)-one hydrochloride]
7.01 | C=Cc1ccc(=O)n(CC(=O)c2cnn(Cc3ccccn3)c2CC)c1 [Example 80, 1-(2-(5-Ethyl-1-(pyridin-2-ylmethyl)-1H-pyrazol-4-yl)-2-oxoethyl)-5-vinylpyridin-2(1H)-one]
< 5.00 | Cc1cc(C(=O)C(Cc2ccccc2)n2cc(C#N)ccc2=O)c(C)n1Cc1ccccc1 (centres unmarked) [Example 51, 1-(1-(1-Benzyl-2,5-dimethyl-1H-pyrrol-3-yl)-1-oxo-3-phenylpropan-2-yl)-6-oxo-1,6-dihydropyridine-3-carbonitrile]
7.14 | C#Cc1ccc(=O)n(CC(=O)c2nnn(Cc3ccccc3)c2C)c1 [Example 88, 1-(2-(1-Benzyl-5-methyl-1H-1,2,3-triazol-4-yl)-2-oxoethyl)-5-ethynylpyridin-2(1H)-one]
6.71 | CC#Cc1ccc(=O)n(CC(=O)c2cc(C)n(Cc3ccccc3)c2C)c1 [Compound 26, 1-(2-(1-benzyl-2,5-dimethyl-1H-pyrrol-3-yl)-2-oxoethyl)-5-(prop-1-yn-1-yl)pyridin-2(1H)-one]
6.74 | C=C(C)c1ccc(=O)n(CC(=O)c2cnn(Cc3ccccc3)c2C)c1 [Example 81, 1-(2-(1-Benzyl-5-methyl-1H-pyrazol-4-yl)-2-oxoethyl)-5-(prop-1-en-2-yl)pyridin-2(1H)-one]
7.30 | C=Cc1ccc(=O)n(C(C)C(=O)c2cnn(Cc3ccccn3)c2C)c1 (centres unmarked) [Example 79, 1-(1-(5-Methyl-1-(pyridin-2-ylmethyl)-1H-pyrazol-4-yl)-1-oxopropan-2-yl)-5-vinylpyridin-2(1H)-one]
< 5.00 | Cc1cc(C(=O)Cn2c(C)c(C#N)ccc2=O)c(C)n1Cc1ccccc1 [Example 44, 1-(2-(1-Benzyl-2,5-dimethyl-1H-pyrrol-3-yl)-2-oxoethyl)-2-methyl-6-oxo-1,6-dihydropyridine-3-carbonitrile]
7.37 | C=C(c1ccc(=O)n(CC(=O)c2cnn(Cc3ccccc3)c2C)c1)C(F)(F)F [Example 84, 1-(2-(1-Benzyl-5-methyl-1H-pyrazol-4-yl)-2-oxoethyl)-5-(3,3,3-trifluoroprop-1-en-2-yl)pyridin-2(1H)-one]
6.96 | Cc1c(C(=O)Cn2nc(Br)ccc2=O)cnn1Cc1ccccc1 [Example 55, 2-(2-(1-Benzyl-5-methyl-1H-pyrazol-4-yl)-2-oxoethyl)-6-bromopyridazin-3(2H)-one]
6.10 | Cc1cc(C(=O)C(C)n2cc(Br)ccc2=O)c(C)n1Cc1cccc(Cl)c1 (centres unmarked) [Compound 22, 5-bromo-1-(1-(1-(3-chlorobenzyl)-2,5-dimethyl-1H-pyrrol-3-yl)-1-oxopropan-2-yl)pyridin-2(1H)-one]
7.34 | C#Cc1ccc(=O)n(C(C)C(=O)c2cnn(Cc3ccc(F)cc3)c2C)n1 (centres unmarked) [Example 74, 6-Ethynyl-2-(1-(1-(4-fluorobenzyl)-5-methyl-1H-pyrazol-4-yl)-1-oxopropan-2-yl)pyridazin-3(2H)-one]
7.00 | C#Cc1ccc(=O)n(C(C)C(=O)c2cnn(Cc3ccccn3)c2C)c1 (centres unmarked) [Example 77]
6.60 | C#Cc1ccc(=O)n(CC(=O)c2cc(C)n(Cc3ccc(F)cc3)n2)c1 [Compound 31, 5-ethynyl-1-(2-(1-(4-fluorobenzyl)-5-methyl-1H-pyrazol-3-yl)-2-oxoethyl)pyridin-2(1H)-one]
7.24 | C#Cc1ccc(=O)n(Cc2nccc3c2cnn3Cc2ccccc2)c1 [Compound 131, 1-((1-benzyl-1H-pyrazolo[4,3-c]pyridin-4-yl)methyl)-5-ethynylpyridin-2(1H)one hydrochloride]
6.74 | Cc1c(C(=O)Cn2cc(Br)ncc2=O)cnn1Cc1ccccc1 [Example 70, 1-(2-(1-Benzyl-5-methyl-1H-pyrazol-4-yl)-2-oxoethyl)-5-bromopyrazin-2(1H)-one]
